Patent US9527838B2, “2-pyridinecarboxamide derivatives, compositions containing such compounds, and methods of treatment” (priority 2012, dated 2016)

Target: Recombinant human liver glucokinase (Homo sapiens (Human), UniProt P35557)
Experiment: Glucokinase activation assay (G6PDH-coupled, Thio-NADH absorbance at 405 nm)
Type: biochemical
Settings: for EC50: 2.5 mM Glu, 30° C.
From the text: The glucokinase activity can, for instance, be determined without directly measuring glucose-6-phosphate by measuring the amount of Thio-NADH generated during the production of phosphogluconolactone from glucose-6-phosphate by a reporter enzyme glucose-6-phosphate dehydrogenase.
To test the exemplified compounds, the following assay was employed. Recombinant human liver glucokinase was expressed as a FLAG fusion protein in E. coli, and purified on […] M2 AFFINITY GEL (Sigma). The assay was carried out at 30° C. in a 96-well plate. In the plate was distributed 69 μl each of assay buffer (25 mM Hepes Buffer: pH=7.2, 2 mM MgCl2, 1 mM ATP, 0.5 mM TNAD, 1 mM dithiothreitol), to which was added 1 μl of a DMSO solution of the compound or DMSO as control. Then, 20 μl of pre-ice-cooled enzyme mixture (FLAG-GK, 20 U/ml G6PDH) was distributed thereto, to which was added 10 μl of 25 mM glucose as substrate to initiate the reaction (final glucose concentration=2.5 mM). After starting the reaction, the absorbance at 405 nm was measured every 30 seconds for 10 minutes to evaluate the compound based on the initial increase for 5 minutes. FLAG-GK was added so that the increase of absorbance after 5 minutes fell between 0.05 to 0.1 in the presence of 1% DMSO.
The OD values of the respective compounds were measured in the respective concentrations, wherein the OD value of DMSO as control is regarded as 100%.

Sequence of Recombinant human liver glucokinase (P35557 other isoform, or with tags, fused parts or gaps): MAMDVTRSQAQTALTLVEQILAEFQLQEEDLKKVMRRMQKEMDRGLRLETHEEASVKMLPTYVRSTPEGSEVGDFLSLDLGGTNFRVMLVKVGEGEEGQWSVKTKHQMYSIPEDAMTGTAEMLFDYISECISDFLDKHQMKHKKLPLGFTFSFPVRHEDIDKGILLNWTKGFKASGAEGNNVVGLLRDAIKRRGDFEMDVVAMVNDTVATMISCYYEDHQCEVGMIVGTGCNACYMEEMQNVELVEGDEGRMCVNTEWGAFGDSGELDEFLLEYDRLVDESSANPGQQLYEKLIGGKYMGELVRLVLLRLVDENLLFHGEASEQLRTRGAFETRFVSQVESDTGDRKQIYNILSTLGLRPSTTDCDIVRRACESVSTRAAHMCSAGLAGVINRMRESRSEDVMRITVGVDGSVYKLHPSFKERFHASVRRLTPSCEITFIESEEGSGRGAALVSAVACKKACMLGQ

| SMILES | Emax | EC50 |
| --- | --- | --- |
| CCOC(=O)Cc1nc(NC(=O)c2nc(Sc3ccccn3)ccc2Sc2ccc(F)cc2)sc1Cl [Example 31, Ethyl {5-chloro-2-[({3-[(4-fluorophenyl)sulfanyl]-6-(pyridin-2-ylsulfanyl)pyridin-2-yl}carbonyl)amino]-1,3-thiazol-4-yl}acetate] | 436% | 127 nM |
| O=C(O)Cc1nc(NC(=O)c2nc(Sc3ccccn3)ccc2Sc2ccc(F)cc2)sc1Cl [Example 32, {5-Chloro-2-[({3-[(4-fluorophenyl)sulfanyl]-6-(pyridin-2-ylsulfanyl)pyridin-2-yl}carbonyl)amino]-1,3-thiazol-4-yl}acetic acid] | 643% | 16.1 nM |
| CCOC(=O)Cc1csc(NC(=O)c2nc(Sc3ccccn3)ccc2Sc2ccc(F)cc2)n1 [Example 33, Ethyl {2-[({3-[(4-fluorophenyl)sulfanyl]-6-(pyridin-2-ylsulfanyl)pyridin-2-yl}carbonyl)amino]-1,3-thiazol-4-yl}acetate] | 456% | 4660 nM |
| O=C(O)Cc1csc(NC(=O)c2nc(Sc3ccccn3)ccc2Sc2ccc(F)cc2)n1 [Example 34, {2-[({3-[(4-Fluorophenyl)sulfanyl]-6-(pyridin-2-ylsulfanyl)pyridin-2-yl}carbonyl)amino]-1,3-thiazol-4-yl}acetic acid] | 762% | 413 nM |
| CCOC(=O)CSc1cnc(NC(=O)c2nc(Sc3ccccn3)ccc2Sc2ccc(F)cc2)s1 [Example 35, Ethyl ({2-[({3-[(4-fluorophenyl)sulfanyl]-6-(pyridin-2-ylsulfanyl)pyridin-2-yl}carbonyl)amino]-1,3-thiazol-5-yl}sulfanyl)acetate] | 504% | 83.8 nM |
| O=C(O)CSc1cnc(NC(=O)c2nc(Sc3ccccn3)ccc2Sc2ccc(F)cc2)s1 [Example 36, ({2-[({3-[(4-Fluorophenyl)sulfanyl]-6-(pyridin-2-ylsulfanyl)pyridin-2-yl}carbonyl)amino]-1,3-thiazol-5-yl}sulfanyl)acetic acid] | 514% | 34 nM |
| CCOC(=O)C(C)(C)CSc1cnc(NC(=O)c2nc(Sc3ccccn3)ccc2Sc2ccc(F)cc2)s1 [Example 37, Ethyl 3-({2-[({3-[(4-fluorophenyl)sulfanyl]-6-(pyridin-2-ylsulfanyl)pyridin-2-yl}carbonyl)amino]-1,3-thiazol-5-yl}sulfanyl)-2,2-dimethylpropanoate] | 450% | 129 nM |
| CC(C)(CSc1cnc(NC(=O)c2nc(Sc3ccccn3)ccc2Sc2ccc(F)cc2)s1)C(=O)O [Example 38, 3-({2-[({3-[(4-Fluorophenyl)sulfanyl]-6-(pyridin-2-ylsulfanyl)pyridin-2-yl}carbonyl)amino]-1,3-thiazol-5-yl}sulfanyl)-2,2-dimethylpropanoic acid] | 550% | 32 nM |
| COC(=O)CCc1cnc(NC(=O)c2nc(Sc3ccccn3)ccc2Sc2ccc(F)cc2)s1 [Example 39, Methyl 3-{2-[({3-[(4-fluorophenyl)sulfanyl]-6-(pyridin-2-ylsulfanyl)pyridin-2-yl}carbonyl)amino]-1,3-thiazol-5-yl}propanoate] | 468% | 726 nM |
| O=C(O)CCc1cnc(NC(=O)c2nc(Sc3ccccn3)ccc2Sc2ccc(F)cc2)s1 [Example 40, 3-{2[({3-[(4-Fluorophenyl)sulfanyl]-6-(pyridin-2-ylsulfanyl)pyridin-2-yl}carbonyl)amino]-1,3-thiazol-5-yl}propanoic acid] | 658% | 428 nM |
| CCOC(=O)Cc1nc(NC(=O)c2nc(Sc3nncn3C)ccc2Sc2ccc(C(F)(F)F)cc2)sc1Cl [Example 41, Ethyl (5-chloro-2-{[(6-[(4-methyl-4H-1,2,4-triazol-3-yl)sulfanyl]-3-{[4-(trifluoromethyl)phenyl]sulfanyl}pyridin-2-yl)carbonyl]amino}-1,3-thiazol-4-yl)acetate] | 296% | 18.9 nM |
| Cn1cnnc1Sc1ccc(Sc2ccc(C(F)(F)F)cc2)c(C(=O)Nc2nc(CC(=O)O)c(Cl)s2)n1 [Example 42, (5-Chloro-2-{[(6-[(4-methyl-4H-1,2,4-triazol-3-yl)sulfanyl]-3-{[4-(trifluoromethyl)phenyl]sulfanyl}pyridin-2-yl)carbonyl]amino}-1,3-thiazol-4-yl)acetic acid] | 466% | 44 nM |
| CCOC(=O)CSc1cnc(NC(=O)c2nc(Sc3nncn3C)ccc2Sc2ccc(C(F)(F)F)cc2)s1 [Example 43, Ethyl [(2-{[(6-[(4-methyl-4H-1,2,4-triazol-3-yl)sulfanyl]-3-{[4-(trifluoromethyl)phenyl]sulfanyl}pyridin-2-yl)carbonyl]amino}-1,3-thiazol-5-yl)sulfanyl]acetate] | 384% | 28.3 nM |
| Cn1cnnc1Sc1ccc(Sc2ccc(C(F)(F)F)cc2)c(C(=O)Nc2ncc(SCC(=O)O)s2)n1 [Example 44, [(2-{[(6-[(4-Methyl-4H-1,2,4-triazol-3-yl)sulfanyl]-3-{[4-(trifluoromethyl)phenyl]sulfanyl}pyridin-2-yl)carbonyl]amino}-1,3-thiazol-5-yl)sulfanyl]acetic acid] | 349% | 33.7 nM |
| CCOP(=O)(Cc1cnc(NC(=O)c2nc(Sc3nncn3C)ccc2Sc2ccc(C(F)(F)F)cc2)s1)OCC [Example 45, Diethyl [(2-{[(6-[(4-methyl-4H-1,2,4-triazol-3-yl)sulfanyl]-3-{[4-(trifluoromethyl)phenyl]sulfanyl}pyridin-2-yl)carbonyl]amino}-1,3-thiazol-5-yl)methyl]phosphonate] | 273% | 350 nM |
| CCOC(=O)Cc1csc(NC(=O)c2nc(Sc3nncn3C)ccc2Sc2ccc(C(F)(F)F)cc2)n1 [Example 46, Ethyl (2-{[(6-[(4-methyl-4H-1,2,4-triazol-3-yl)sulfanyl]-3-{[4-(trifluoromethyl)phenyl]sulfanyl}pyridin-2-yl)carbonyl]amino}-1,3-thiazol-4-yl)acetate] | 466% | 66.3 nM |
| Cn1cnnc1Sc1ccc(Sc2ccc(C(F)(F)F)cc2)c(C(=O)Nc2nc(CC(=O)O)cs2)n1 [Example 47, (2-{[(6-[(4-Methyl-4H-1,2,4-triazol-3-yl)sulfanyl]-3-{[4-(trifluoromethyl)phenyl]sulfanyl}pyridin-2-yl)carbonyl]amino}-1,3-thiazol-4-yl)acetic acid] | 633% | 222 nM |
| COC(=O)CCc1cnc(NC(=O)c2nc(Sc3nncn3C)ccc2Sc2ccc(C(F)(F)F)cc2)s1 [Example 48, Methyl 3-(2-{[(6-[(4-methyl-4H-1,2,4-triazol-3-yl)sulfanyl]-3-{[4-(trifluoromethyl)phenyl]sulfanyl}pyridin-2-yl)carbonyl]amino}-1,3-thiazol-5-yl)propanoate] | 428% | 71.8 nM |
| Cn1cnnc1Sc1ccc(Sc2ccc(C(F)(F)F)cc2)c(C(=O)Nc2ncc(CCC(=O)O)s2)n1 [Example 49, 3-(2-{[(6-[(4-Methyl-4H-1,2,4-triazol-3-yl)sulfanyl]-3-{[4-(trifluoromethyl)phenyl]sulfanyl}pyridin-2-yl)carbonyl]amino}-1,3-thiazol-5-yl)propanoic acid] | 549% | 173 nM |
| CCOP(=O)(Cc1cnc(NC(=O)c2nc(Sc3nncn3C)ccc2Sc2ccc(Cl)c(Cl)c2)s1)OCC [Example 50] | 379% | 57.1 nM |
